According to patent publication US7750003B2, “Compounds-943” (AstraZeneca AB, priority 2006, dated 2010):

Molecular target: recombinant mTOR (FLAG-tagged, residues 1362-2549) (Homo sapiens, UniProt P42345)
Assay: In vitro mTOR kinase assay (Test (a), AlphaScreen)
Assay type: biochemical
Conditions: ATP 20 μM, read-out: Test (a): IC50 versus mTOR kinase
In short: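 AlphaScreen read-out: a phospho-T389 p70 S6K antibody on acceptor beads captures the phosphorylated biotin-peptide on donor beads, with signal loss indicating inhibition.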

recombinant mTOR (FLAG-tagged, residues 1362-2549), sequence (P42345 1362-2549): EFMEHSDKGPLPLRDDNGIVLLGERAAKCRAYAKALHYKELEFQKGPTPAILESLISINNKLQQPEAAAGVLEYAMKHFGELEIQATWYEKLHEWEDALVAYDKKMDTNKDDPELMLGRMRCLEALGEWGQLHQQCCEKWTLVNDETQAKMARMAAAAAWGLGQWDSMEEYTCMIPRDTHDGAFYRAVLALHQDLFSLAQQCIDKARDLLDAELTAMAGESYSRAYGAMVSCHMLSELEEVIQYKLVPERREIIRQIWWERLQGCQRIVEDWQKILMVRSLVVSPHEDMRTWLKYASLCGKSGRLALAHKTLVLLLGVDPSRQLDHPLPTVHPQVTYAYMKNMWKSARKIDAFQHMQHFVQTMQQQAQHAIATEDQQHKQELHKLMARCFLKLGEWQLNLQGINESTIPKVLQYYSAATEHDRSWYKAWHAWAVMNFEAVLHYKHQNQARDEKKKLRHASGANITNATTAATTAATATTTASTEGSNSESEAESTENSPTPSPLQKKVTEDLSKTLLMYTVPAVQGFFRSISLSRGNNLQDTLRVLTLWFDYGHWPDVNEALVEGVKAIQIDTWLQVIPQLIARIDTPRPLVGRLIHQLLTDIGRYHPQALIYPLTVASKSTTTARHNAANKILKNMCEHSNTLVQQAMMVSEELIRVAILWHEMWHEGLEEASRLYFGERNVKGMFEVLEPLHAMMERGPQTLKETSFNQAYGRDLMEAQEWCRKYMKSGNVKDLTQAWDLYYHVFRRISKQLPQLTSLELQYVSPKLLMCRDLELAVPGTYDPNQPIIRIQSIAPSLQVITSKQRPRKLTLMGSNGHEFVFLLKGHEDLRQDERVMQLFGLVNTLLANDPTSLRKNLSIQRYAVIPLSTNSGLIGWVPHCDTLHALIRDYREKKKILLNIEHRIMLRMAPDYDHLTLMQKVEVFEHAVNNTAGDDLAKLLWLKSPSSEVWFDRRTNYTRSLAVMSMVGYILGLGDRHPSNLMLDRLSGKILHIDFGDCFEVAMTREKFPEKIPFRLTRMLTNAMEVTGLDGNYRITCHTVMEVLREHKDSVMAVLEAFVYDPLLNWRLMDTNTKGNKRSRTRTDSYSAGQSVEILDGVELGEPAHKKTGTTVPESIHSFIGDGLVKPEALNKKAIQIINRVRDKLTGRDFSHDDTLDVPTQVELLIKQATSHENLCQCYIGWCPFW

SMILES | IC50
C[C@H]1COCCN1c1cc(CS(C)(=O)=O)nc(-n2ccc(NC(=O)Nc3ccc(F)cc3)n2)n1 [Example 25b, 3-(4-fluorophenyl)-1-[1-[4-[(3S)-3-methylmorpholin-4-yl]-6-(methylsulfonylmethyl)pyrimidin-2-yl]pyrazol-3-yl]urea] | 4400 nM
CNC(=O)CS(=O)(=O)Cc1cc(N2CCOC[C@@H]2C)nc(-c2ccc(NC(=O)NC)cc2)n1 [Example 26, N-Methyl-2-[[2-[4-(methylcarbamoylamino)phenyl]-6-[(3S)-3-methylmorpholin-4-yl]pyrimidin-4-yl]methylsulfonyl]acetamide] | 29 nM
CNC(=O)Nc1ccc(-c2nc(CS(=O)(=O)CC(N)=O)cc(N3CCOC[C@@H]3C)n2)cc1 [Example 26a, 2-[[2-[4-(methylcarbamoylamino)phenyl]-6-[(3S)-3-methylmorpholin-4-yl]pyrimidin-4-yl]methylsulfonyl]acetamide] | 37 nM
CNC(=O)Nc1ccc(-c2nc(CS(=O)(=O)CCNC(C)=O)cc(N3CCOC[C@@H]3C)n2)cc1 [Example 26b, N-[2-[[2-[4-(methylcarbamoylamino)phenyl]-6-[(3S)-3-methylmorpholin-4-yl]pyrimidin-4-yl]methylsulfonyl]ethyl]acetamide] | 41 nM
C[C@H]1COCCN1c1cc(CN2CCOCC2)nc(-c2ccc(NC(=O)Nc3ccccc3)cc2)n1 [Example 27, 1-[4-[4-[(3S)-3-Methylmorpholin-4-yl]-6-(morpholin-4-ylmethyl)pyrimidin-2-yl]phenyl]-3-phenyl-urea] | 190 nM
C[C@H]1COCCN1c1cc(COc2ccccc2)nc(-c2ccc(NC(=O)Nc3ccccc3)cc2)n1 [Example 28, 1-[4-[4-[(3S)-3-Methylmorpholin-4-yl]-6-(phenoxymethyl)pyrimidin-2-yl]phenyl]-3-phenyl-urea] | 4700 nM
C[C@H]1COCCN1c1cc(CS(=O)(=O)C2CCNC2=O)nc(-c2ccc(NC(=O)Nc3ccccc3)cc2)n1 (stereo partly drawn) [Example 29, 1-[4-[4-[(3S)-3-Methylmorpholin-4-yl]-6-[(2-oxopyrrolidin-3-yl)sulfonylmethyl]pyrimidin-2-yl]phenyl]-3-phenyl-urea] | 560 nM
C[C@H]1COCCN1c1cc(CNc2ccccc2)nc(-c2ccc(NC(=O)Nc3ccccc3)cc2)n1 [Example 30, 1-[4-[4-(Anilinomethyl)-6-[(3S)-3-methylmorpholin-4-yl]pyrimidin-2-yl]phenyl]-3-phenyl-urea] | 900 nM
C[C@H]1COCCN1c1cc(CN2CCN(C)CC2)nc(-c2ccc(NC(=O)Nc3ccccc3)cc2)n1 [Example 30a, 1-[4-[4-[(3S)-3-methylmorpholin-4-yl]-6-[(4-methylpiperazin-1-yl)methyl]pyrimidin-2-yl]phenyl]-3-phenyl-urea] | 120 nM
C[C@H]1COCCN1c1cc(CNC2CC2)nc(-c2ccc(NC(=O)Nc3ccccc3)cc2)n1 [Example 30b, 1-[4-[4-[(cyclopropylamino)methyl]-6-[(3S)-3-methylmorpholin-4-yl]pyrimidin-2-yl]phenyl]-3-phenyl-urea] | 180 nM
C[C@H]1COCCN1c1cc(CNC2CCN(C)CC2)nc(-c2ccc(NC(=O)Nc3ccccc3)cc2)n1 [Example 30c, 1-[4-[4-[(3S)-3-methylmorpholin-4-yl]-6-[[(1-methyl-4-piperidyl)amino]methyl]pyrimidin-2-yl]phenyl]-3-phenyl-urea] | 1100 nM
C[C@H]1COCCN1c1cc(CN(C)C2CC2)nc(-c2ccc(NC(=O)Nc3ccccc3)cc2)n1 [Example 30d, 1-[4-[4-[(cyclopropyl-methyl-amino)methyl]-6-[(3S)-3-methylmorpholin-4-yl]pyrimidin-2-yl]phenyl]-3-phenyl-urea] | 280 nM
C[C@H]1COCCN1c1cc(COC2CCN(C)CC2)nc(-c2ccc(NC(=O)Nc3ccccc3)cc2)n1 [Example 31, 1-[4-[4-[(3S)-3-Methylmorpholin-4-yl]-6-[(1-methyl-4-piperidyl)oxymethyl]pyrimidin-2-yl]phenyl]-3-phenyl-urea] | 350 nM
COCc1cc(N2CCOC[C@@H]2C)nc(-c2ccc(NC(=O)Nc3ccccc3)cc2)n1 [Example 32, 1-[4-[4-(Methoxymethyl)-6-[(3S)-3-methylmorpholin-4-yl]pyrimidin-2-yl]phenyl]-3-phenyl-urea] | 6.2 nM
CNC(=O)Nc1ccc(-c2nc(CS(=O)(=O)c3nccn3C)cc(N3CCOC[C@@H]3C)n2)cc1 [Example 33, 3-Methyl-1-[4-[4-[(1-methylimidazol-2-yl)sulfonylmethyl]-6-[(3S)-3-methylmorpholin-4-yl]pyrimidin-2-yl]phenyl]urea] | 840 nM
CNC(=O)Nc1ccc(-c2nc(CS(=O)(=O)c3ccccc3Cl)cc(N3CCOC[C@@H]3C)n2)cc1 [Example 33a, 1-[4-[4-[(2-chlorophenyl)sulfonylmethyl]-6-[(3S)-3-methylmorpholin-4-yl]pyrimidin-2-yl]phenyl]-3-methyl-urea] | 60 nM
CNC(=O)Nc1ccc(-c2nc(CS(=O)(=O)c3ccccc3OC)cc(N3CCOC[C@@H]3C)n2)cc1 [Example 33b, 1-[4-[4-[(2-methoxyphenyl)sulfonylmethyl]-6-[(3S)-3-methylmorpholin-4-yl]pyrimidin-2-yl]phenyl]-3-methyl-urea] | 66 nM

SMILES | IC50
CNC(=O)Nc1ccc(-c2nc(CS(=O)(=O)c3ncc[nH]3)cc(N3CCOC[C@@H]3C)n2)cc1 [Example 33c, 1-[4-[4-(1H-imidazol-2-ylsulfonylmethyl)-6-[(3S)-3-methylmorpholin-4-yl]pyrimidin-2-yl]phenyl]-3-methyl-urea] | 1.4 nM
CNC(=O)Nc1ccc(-c2nc(CS(=O)(=O)c3ccc(N)cc3)cc(N3CCOC[C@@H]3C)n2)cc1 [Example 33d, 1-[4-[4-[(4-aminophenyl)sulfonylmethyl]-6-[(3S)-3-methylmorpholin-4-yl]pyrimidin-2-yl]phenyl]-3-methyl-urea] | 0.31 nM
CNC(=O)Nc1ccc(-c2nc(CS(=O)(=O)c3ccccc3C)cc(N3CCOC[C@@H]3C)n2)cc1 [Example 33e, 3-methyl-1-[4-[4-[(3S)-3-methylmorpholin-4-yl]-6-[(2-methylphenyl)sulfonylmethyl]pyrimidin-2-yl]phenyl]urea] | 88 nM
CNC(=O)Nc1ccc(-c2nc(CS(=O)(=O)c3ccccn3)cc(N3CCOC[C@@H]3C)n2)cc1 [Example 33f, 3-methyl-1-[4-[4-[(3S)-3-methylmorpholin-4-yl]-6-(pyridin-2-ylsulfonylmethyl)pyrimidin-2-yl]phenyl]urea] | 270 nM
CNC(=O)Nc1ccc(-c2nc(CS(=O)(=O)c3nccs3)cc(N3CCOC[C@@H]3C)n2)cc1 [Example 33g, 3-methyl-1-[4-[4-[(3S)-3-methylmorpholin-4-yl]-6-(1,3-thiazol-2-ylsulfonylmethyl)pyrimidin-2-yl]phenyl]urea] | 21 nM
CNC(=O)Nc1ccc(-c2nc(CS(=O)(=O)c3nc(C)cs3)cc(N3CCOC[C@@H]3C)n2)cc1 [Example 33h, 3-methyl-1-[4-[4-[(3S)-3-methylmorpholin-4-yl]-6-[(4-methyl-1,3-thiazol-2-yl)sulfonylmethyl]pyrimidin-2-yl]phenyl]urea] | 48 nM
CS(=O)(=O)Cc1cc(N2CCOCC2)nc(-c2ccc(NC(N)=O)cc2)n1 [Example 34, [4-[4-(Methylsulfonylmethyl)-6-morpholin-4-yl-pyrimidin-2-yl]phenyl]urea] | 210 nM
CS(=O)(=O)Cc1cc(N2CCOCC2)nc(-c2ccc(NC(=O)Nc3ccon3)cc2)n1 [Example 34a, 1-[4-[4-(methylsulfonylmethyl)-6-morpholin-4-yl-pyrimidin-2-yl]phenyl]-3-(1,2-oxazol-3-yl)urea] | 42 nM
Cn1ccc(NC(=O)Nc2ccc(-c3nc(CS(C)(=O)=O)cc(N4CCOCC4)n3)cc2)n1 [Example 34c, 1-(1-methylpyrazol-3-yl)-3-[4-[4-(methylsulfonylmethyl)-6-morpholin-4-yl-pyrimidin-2-yl]phenyl]urea] | 720 nM
CC(CO)NC(=O)Nc1ccc(-c2nc(CS(C)(=O)=O)cc(N3CCOC[C@@H]3C)n2)cc1 (stereo partly drawn) [Example 35, 3-(1-Hydroxypropan-2-yl)-1-[4-[4-[(3S)-3-methylmorpholin-4-yl]-6-(methylsulfonylmethyl)pyrimidin-2-yl]phenyl]urea] | 64 nM
C[C@H]1COCCN1c1cc(CS(C)(=O)=O)nc(-c2ccc(NC(=O)NCCCN(C)C)cc2)n1 [Example 35a, 3-(3-dimethylaminopropyl)-1-[4-[4-[(3S)-3-methylmorpholin-4-yl]-6-(methylsulfonylmethyl)pyrimidin-2-yl]phenyl]urea] | 6400 nM
COCCCNC(=O)Nc1ccc(-c2nc(CS(C)(=O)=O)cc(N3CCOC[C@@H]3C)n2)cc1 [Example 35b, 3-(3-methoxypropyl)-1-[4-[4-[(3S)-3-methylmorpholin-4-yl]-6-(methylsulfonylmethyl)pyrimidin-2-yl]phenyl]urea] | 420 nM
C[C@H]1COCCN1c1cc(CS(C)(=O)=O)nc(-c2ccc(NC(=O)N3CCCC3)cc2)n1 [Example 35c, N-[4-[4-[(3S)-3-methylmorpholin-4-yl]-6-(methylsulfonylmethyl)pyrimidin-2-yl]phenyl]pyrrolidine-1-carboxamide] | 3400 nM
C[C@H]1COCCN1c1cc(CS(C)(=O)=O)nc(-c2ccc(NC(=O)N3CCOCC3)cc2)n1 [Example 35d, N-[4-[4-[(3S)-3-methylmorpholin-4-yl]-6-(methylsulfonylmethyl)pyrimidin-2-yl]phenyl]morpholine-4-carboxamide] | 3200 nM
C[C@H]1COCCN1c1cc(CS(C)(=O)=O)nc(-c2ccc(NC(=O)N3CCC(O)CC3)cc2)n1 [Example 35e, 4-hydroxy-N-[4-[4-[(3S)-3-methylmorpholin-4-yl]-6-(methylsulfonylmethyl)pyrimidin-2-yl]phenyl]piperidine-1-carboxamide] | 2500 nM
C[C@H]1COCCN1c1cc(CS(C)(=O)=O)nc(-c2ccc(NC(=O)NC(C)(C)C)cc2)n1 [Example 35f, 1-[4-[4-[(3S)-3-methylmorpholin-4-yl]-6-(methylsulfonylmethyl)pyrimidin-2-yl]phenyl]-3-tert-butyl-urea] | 820 nM
